Tested on: Human umbilical vein endothelial cells (HUVECs)
Assay: eNOS activity analysis: NO, ONOO− and NO/ONOO− release from HUVECs of 50 genotyped donors in response to LA-419 (Example 2)
Assay type: cell-based
Details: for Net increase over control ONOO− (mean ± sd) / Peak release NO (mean ± sd) / Peak release NO/ONOO− (mean ± sd) / Peak release ONOO− (mean ± sd) / Net increase over control NO (mean ± sd) / Net increase over control NO/ONOO− (mean ± sd) / % Change Ratio, % Change NO/% Change ONOO− (mean ± sd): LA-419 1 μM; for % Change NO (mean ± sd) / % Change NO/ONOO− (mean ± sd) / % Change ONOO− (mean ± sd): LA-419 5 μM vs control
Procedure: Concurrent measurements of NO and ONOO^− were carried out with tandem electrochemical nanosensors combined into one working unit with a total diameter of 200-500 nm (FIG. 1). Their design was based on previously developed and well-characterized chemically modified carbon-fiber technology (Malinski and Taha, 1992; Lvovich and Scheeline, 1997). Each of the nanosensors was made by depositing a sensing material on the tip of a carbon fiber (length 4-5 μm, diameter 0.2-0.5 μm). The fibers were sealed with nonconductive epoxy and electrically connected to copper wires with conductive silver epoxy. A conductive film of polymeric nickel (II) tetrakis(3-methoxy-4-hydroxyphenyl)porphyrin for the NO-sensor and polymeric film of Mn (III) [2.2]paracyclophanylporphyrin was used for the ONOO^−-sensor.
A module of NO/ONOO^− nanosensors (diameter 1-2 μm) with a platinum wire (0.1 mm) counter electrode and saturated calomel reference electrode (SCE) were applied. Differential pulse voltammetry (DPV) and amperometry were performed with a computer-based Gamry VFP600 multichannel potentiostat. DPV was used to measure the basal NO and ONOO^− concentrations, and amperometry was used to measure changes in NO and ONOO^− concentrations from its basal level with time. The DPV current at the peak potential characteristic for NO oxidation (0.65 V) and ONOO^− reduction (−0.45 V) was directly proportional to the local concentrations of these compounds in the immediate vicinity of the sensor. Linear calibration curves (current vs. concentration) were constructed for each sensor from 10 nM to 3 μM before and after measurements with aliquots of NO and ONOO^− standard solutions, respectively. The detection limit of the sensors was 1.0 nM.
The quantification of each analyte (concentration in nM) was performed using a maximum current from amperograms and standard calibration curves. A reproducibility of measurements with nanosensors is relatively high (between 5-12%). […] The sensors were slowly raised 5±2 μm from the surface of a single endothelial cell. The eNOS agonist, calcium ionophore A23187 (CaI) as well as the different drugs were then added to the surrounding media at the cell surface with a nanoinjector that was also positioned by a computer controlled-micromanipulator.
This example describes the genotype-specific response of the three major eNOS variants to 1 μM and 5 μM concentrations of LA-419. The three major genetic polymorphisms studied were the Glu298Asp variant (E298D or 894G→T) in exon 7 of […], the −786T→C variant in the promoter region, and the intron 4 polymorphism (VNTR). All of these variants have possible effects on the cardiovascular system and endothelial dysfunction. For this study, human umbilical vein endothelial cells (HUVECs) from 50 donors between 18 and 32 years of age were used.
For the analysis several analysis techniques were employed. First, the effect of genotype on NO and ONOO^− release was explored within the different concentrations of LA-419 (control, 1 μM, 5 μM), calculated as the average peak release (nmols/L) of NO, ONOO^−, and NO/ONOO^−. The effect of genotype on the net increase in NO, ONOO^−, and NO/ONOO^− for LA-419 (1 μM and 5 μM) as compared to control was also measured. In addition, an analysis was done on the effect of genotype on the % change in NO, ONOO^−, and NO/ONOO^− production for LA-419 (1 μM and 5 μM), calculated as:
% Change=[(avg. LA-419−avg. control)/(avg. control)]*100
Finally, an evaluation was undertaken concerning the effect of genotype on the production of NO, ONOO^−, and NO/ONOO^− as the fold difference of control for LA-419 (1 μM and 5 μM), calculated as:
Fold Difference=(avg. LA-419)/(avg. control)
Within each calculation technique the results were compared for statistical significance using a non-parametric ANOVA Kruskal-Wallace test or a non-parametric Mann-Whitney U test. Statistical significance was set at a p-value <0.05 in a two-tailed distribution. […]

[1] = HUVECs Intron 4 variant b/a, a/a, c/c
[2] = HUVECs T-786C variant T/C & C/C
[3] = HUVEC donor Race Caucasian/Black

CC(=O)SC1COC2C(O[N+](=O)[O-])COC12 (stereo not drawn) [LA-419, S-(6-Nitro-oxi-hexahydro-furo[3,2-b]furan-3-1-il)thioacetate]
Net increase over control ONOO− (mean ± sd) (HUVECs Intron 4 variant b/a): −37.57 (99.15) nmols/L | Peak release NO (mean ± sd) (HUVECs Intron 4 variant b/a): 377.23 (69.05) nmols/L | Peak release NO/ONOO− (mean ± sd) (HUVECs Intron 4 variant b/a): 1.25 (0.46) | Peak release ONOO− (mean ± sd) (HUVECs Intron 4 variant b/a): 330.47 (88.93) nmols/L | Net increase over control NO (mean ± sd) [1]: 27.83 (86.07) nmols/L | Net increase over control NO/ONOO− (mean ± sd) [1]: 0.16 (0.46) | Net increase over control ONOO− (mean ± sd) [1]: −21.43 (98.29) nmols/L | Peak release NO (mean ± sd) [1]: 366.00 (71.50) nmols/L | Peak release NO/ONOO− (mean ± sd) [1]: 1.15 (0.48) | Peak release ONOO− (mean ± sd) [1]: 356.55 (98.40) nmols/L | Net increase over control NO (mean ± sd) (HUVECs Intron 4 variant b/b): 39.66 (70.27) nmols/L | Net increase over control NO/ONOO− (mean ± sd) (HUVECs Intron 4 variant b/b): 0.29 (0.47) | Net increase over control ONOO− (mean ± sd) (HUVECs Intron 4 variant b/b): −51.71 (108.03) nmols/L | Peak release NO (mean ± sd) (HUVECs Intron 4 variant b/b): 393.18 (77.21) nmols/L | Peak release NO/ONOO− (mean ± sd) (HUVECs Intron 4 variant b/b): 1.33 (0.42) | Peak release ONOO− (mean ± sd) (HUVECs Intron 4 variant b/b): 317.60 (74.77) nmols/L | Net increase over control NO (mean ± sd) (HUVECs Intron 4 variant c/c): −98.67 (0) nmols/L | Net increase over control NO/ONOO− (mean ± sd) (HUVECs Intron 4 variant c/c): −0.23 (0) | Net increase over control ONOO− (mean ± sd) (HUVECs Intron 4 variant c/c): −2.67 (0) nmols/L | Peak release NO (mean ± sd) (HUVECs Intron 4 variant c/c): 270.00 (0) nmols/L | Peak release NO/ONOO− (mean ± sd) (HUVECs Intron 4 variant c/c): 0.64 (0) | Peak release ONOO− (mean ± sd) (HUVECs Intron 4 variant c/c): 423.67 (0) nmols/L | % Change Ratio, % Change NO/% Change ONOO− (mean ± sd) (HUVECs T-786C variant C/C): −0.80 (1.04) | Net increase over control NO (mean ± sd) (HUVECs T-786C variant C/C): 2.08 (39.61) nmols/L | Net increase over control NO/ONOO− (mean ± sd) (HUVECs T-786C variant C/C): −0.48 (0.48) | Net increase over control ONOO− (mean ± sd) (HUVECs T-786C variant C/C): 25.25 (135.63) nmols/L | Peak release NO (mean ± sd) (HUVECs T-786C variant C/C): 334.25 (68.06) nmols/L | Peak release NO/ONOO− (mean ± sd) (HUVECs T-786C variant C/C): 0.88 (0.50) | Peak release ONOO− (mean ± sd) (HUVECs T-786C variant C/C): 430.17 (124.82) nmols/L | % Change Ratio, % Change NO/% Change ONOO− (mean ± sd) (HUVECs T-786C variant T/C): −1.06 (0.82) | Net increase over control NO (mean ± sd) (HUVECs T-786C variant T/C): 46.77 (81.32) nmols/L | Net increase over control NO/ONOO− (mean ± sd) (HUVECs T-786C variant T/C): −0.99 (0.94) | Net increase over control ONOO− (mean ± sd) (HUVECs T-786C variant T/C): −61.09 (111.68) nmols/L | Peak release NO (mean ± sd) (HUVECs T-786C variant T/C): 396.32 (73.63) nmols/L | Peak release NO/ONOO− (mean ± sd) (HUVECs T-786C variant T/C): 1.35 (0.44) | Peak release ONOO− (mean ± sd) (HUVECs T-786C variant T/C): 315.74 (78.13) nmols/L | Net increase over control NO (mean ± sd) [2]: 40.15 (77.70) nmols/L | Net increase over control NO/ONOO− (mean ± sd) [2]: −0.91 (0.90) | Net increase over control ONOO− (mean ± sd) [2]: −48.30 (116.85) nmols/L | Peak release NO (mean ± sd) [2]: 387.12 (75.01) nmols/L | Peak release NO/ONOO− (mean ± sd) [2]: 1.28 (0.47) | Peak release ONOO− (mean ± sd) [2]: 332.69 (93.16) nmols/L | % Change Ratio, % Change NO/% Change ONOO− (mean ± sd) (HUVECs T-786C variant T/T): 1.06 (9.40) | Net increase over control NO (mean ± sd) (HUVECs T-786C variant T/T): 30.80 (64.85) nmols/L | Net increase over control NO/ONOO− (mean ± sd) (HUVECs T-786C variant T/T): 0.77 (8.26) | Net increase over control ONOO− (mean ± sd) (HUVECs T-786C variant T/T): −27.14 (82.12) nmols/L | Peak release NO (mean ± sd) (HUVECs T-786C variant T/T): 380.73 (75.61) nmols/L | Peak release NO/ONOO− (mean ± sd) (HUVECs T-786C variant T/T): 1.22 (0.43) | Peak release ONOO− (mean ± sd) (HUVECs T-786C variant T/T): 335.82 (80.98) nmols/L | ONOO− production versus control (LA-419 5 μM (Table b2)): decrease | % Change NO (mean ± sd) [3]: 16.93 (4.34) % | % Change NO/ONOO− (mean ± sd) [3]: 58.92 (16.01) % | % Change ONOO− (mean ± sd) [3]: −25.30 (9.90) % | % Change NO (mean ± sd) (HUVEC donor Race Not Reported): 18.69 (5.53) % | % Change NO/ONOO− (mean ± sd) (HUVEC donor Race Not Reported): 75.55 (20.43) % | % Change ONOO− (mean ± sd) (HUVEC donor Race Not Reported): −31.56 (5.34) % | % Change NO (mean ± sd) (HUVEC donor alpha): 12.82 (5.82) % | % Change NO/ONOO− (mean ± sd) (HUVEC donor alpha): 36.30 (14.59) % | % Change ONOO− (mean ± sd) (HUVEC donor alpha): −16.43 (6.22) % | % Change NO (mean ± sd) (HUVEC donor beta): 14.30 (6.78) % | % Change NO/ONOO− (mean ± sd) (HUVEC donor beta): 39.65 (12.24) % | % Change ONOO− (mean ± sd) (HUVEC donor beta): −17.84 (5.90) % | % Change NO (mean ± sd) (HUVEC donor delta): 13.97 (0) % | % Change NO/ONOO− (mean ± sd) (HUVEC donor delta): 57.83 (0) % | % Change ONOO− (mean ± sd) (HUVEC donor delta): −27.79 (0) % | % Change NO (mean ± sd) (HUVEC donor gamma): 17.23 (7.65) % | % Change NO/ONOO− (mean ± sd) (HUVEC donor gamma): 57.79 (12.24) % | % Change ONOO− (mean ± sd) (HUVEC donor gamma): −25.17 (5.79) % | % Change NO (mean ± sd) (HUVECs G894T variant G/G): 15.93 (6.37) % | % Change NO/ONOO− (mean ± sd) (HUVECs G894T variant G/G): 47.91 (17.67) % | % Change ONOO− (mean ± sd) (HUVECs G894T variant G/G): −20.65 (7.38) % | % Change NO (mean ± sd) (HUVECs G894T variant G/T): 13.43 (6.31) % | % Change NO/ONOO− (mean ± sd) (HUVECs G894T variant G/T): 38.86 (13.20) % | % Change ONOO− (mean ± sd) (HUVECs G894T variant G/T): −17.85 (6.26) % | % Change NO (mean ± sd) (HUVECs G894T variant T/T): 11.67 (6.86) % | % Change NO/ONOO− (mean ± sd) (HUVECs G894T variant T/T): 39.03 (13.43) % | % Change ONOO− (mean ± sd) (HUVECs G894T variant T/T): −19.03 (8.40) % | % Change NO (mean ± sd) (HUVECs Intron 4 variant a/a): 13.60 (3.88) % | % Change NO/ONOO− (mean ± sd) (HUVECs Intron 4 variant a/a): 36.75 (3.58) % | % Change ONOO− (mean ± sd) (HUVECs Intron 4 variant a/a): −16.60 (3.31) % | % Change NO (mean ± sd) (HUVECs Intron 4 variant b/a): 16.81 (6.88) % | % Change NO/ONOO− (mean ± sd) (HUVECs Intron 4 variant b/a): 45.81 (14.36) %
